# Experimental data: patent US20070254928A1, “Use of Roflumilast for the Prophylaxis or Treatment of Emphysema” (Altana Pharma AG, priority 2004, published 2007)
# Marks after values point to notes of the source that are not given here.
# Tests used:
# Format in all cases: in vivo
# [1] = system: cigarette smoke induced emphysema in mice (C57BI/6J); assay: Chronic model of cigarette smoke exposure in mice: lung desmosine content by HPLC; settings: for Desmosine (lung content): 7 months, mean ± SEM
# Experimental: (§1) Effects of ROFLUMILAST in an Chronic Model of Cigarette Smoke Exposure in Mice
# (§2) Eighty 6 week old male mice of the strain C57BI/6J (supplied Harlan-Italy, Udine, Italy) were used in this study. The mice were housed in groups of 7 to 10 in macrolon cages. Room temperature was kept at 22° to 24° C.; and relative humidity at 40 to 50%; food and water were supplied ad libitum. All animal experimentation was approved by the Local Ethical Committee of the University of Siena.
# (§3) ROFLUMILAST was given p.o. by gavage in a volume of 10 μl suspension/g body weight 60 min prior to either air or smoke exposure.
# (§4) The methodology for chronic smoke exposure has been previously described in detail (Cavarra et al; Am J Respir Crit Care Med 2001; Vol 164, pp 886-890). Briefly, mice were exposed to either the smoke of 3 cigarettes/day (commercial Virginia filter cigarettes: 12 mg of tar and 0.9 mg of nicotine), 5 days/week or to room air (controls) for 7 months, in especially designed macrolon cages (Tecniplast, Buguggiate, Italy). These cages (42.5×26.6×19 cm) are equipped with a disposable filter cover which enables the air to flow out of the cages and thus to be continuously renewed. The smoke was produced by the burning of a cigarette and was introduced into the chamber with the airflow generated by a mechanical ventilator (7025 Rodent Ventilator, Ugo Basile, Biological Research Instruments, Comerio, Italy), at a rate of 33 ml /min. A second mechanical ventilator was used to provide room air for dilution (1:8) of the smoke-stream. With this methodology the mice were exposed to the smoke originated by three cigarettes once a day for the duration of 90 min. In a pilot study, the efficiency of the smoke delivery system was tested in 12 mice by measuring blood HbCO by co-oxymetry.
# Lung desmosine concentration was determined by High Pressure Liquid Chromatography (HPLC) essentially according to Cumiskey et al. (J Chromatogr B 1995, Vol 668, pp 199-207). Briefly, lung samples were homogenized in 5% TCA (1:9, w:v) and centrifuged for 10 min. at 4000 g at 4° C. The pellet was then washed twice with distilled water and hydrolyzed for 16 h at 130° C. in 6 N HCl.
# After hydrolysis, the samples were centrifuged for 10 min at 2000 g and filtered through a FP 030/3 0.2 μm filter (Schleicher & Schuell). Aliquots (0.5 ml) of samples were desiccated under liquid nitrogen and then suspended in 0.6 ml 0.1 M sodium phosphate, pH 3.73.
# The HPLC apparatus consisted of a single pump (Pro-Star 210, Varian) delivering isocratic mobile phase, of which 80% was 0.1 M dibasic sodium phosphate adjusted to pH 3.75 with phosphoric acid; the remaining 20% was acetonitrile. Sodium dodecyl sulphate (SDS) was added to a final concentration of 10 mM. The pH was re-adjusted after the addition of acetonitrile and SDS. The flow rate was 0.8 ml/min through a C18 (reverse phase MSORV 100A, Varian). Injection volumes of 100 μl of test samples diluted in 0.1 M sodium phosphate buffer, pH 3.75 was used to detect desmosine concentration. Detection of desmosine was by absorbance at 275 nm. Peak purity was checked with a Pro-Star 330 photodiode array detector (Varian) scanning from 200 to 400 nm. Isodesmosine eluted at approx. 9 min, and desmosine approx. at 12 min. Peak height, appopriate external calibration curves and internal standards were used to quantitate desmosine in unknown samples. Desmosine standards were from Elastin Co. (USA).
# (§5) All data were analyzed using GraphPad Prism software (GraphPad Software, San Diego, Calif., USA). For each parameter the values of the individual animals were averaged and the SEM was calculated. The significance of the differences was calculated using parametric one-way analysis of variance (ANOVA) with subsequent Bonferroni's multiple comparison post-test for selected pairs. A p value of <0.05 was considered significant.
# C57BI/6J mice = assay: Chronic model of cigarette smoke exposure in mice: mortality; settings: all groups, ROFLUMILAST 1 or 5 mg/kg p.o., 7 months
# Experimental: as §2, §3
# as §4, with “A second mechanical ventilator was used to provide room air for dilution (1:8) of the smoke-stream. With this methodology the mice were exposed to the smoke originated by three cigarettes once a day for the duration of 90 min. In a pilot study, the efficiency of the smoke delivery system was tested in 12 mice by measuring blood HbCO by co-oxymetry.” left out
# [2] = system: cigarette smoke induced emphysema in mice (C57BI/6J); assay: Chronic model of cigarette smoke exposure in mice: morphometric assessment of emphysema (Lm, ISA); settings: for Lm (mean linear intercept) / ISA (internal surface area of the lung): 7 months, mean ± SEM; for ISA (internal surface area of the lung): ISA=4VL/Lm; for Inhibition of emphysema formation (Lm and ISA), in words: smoke-exposed
# Experimental: as §1, §2, §3, §4
# Seven months after chronic exposure to room air or cigarette smoke (24 h after last exposure), 5 to 12 animals of each group, were anesthetized with ether and then exsanguinated by severing the abdominal aorta. The lungs were excised and fixed intratracheally with buffered formalin (5%) at a constant pressure of 20 cm H2O for at least 24 hours. Post-fixation lung volume (VL) was measured by water displacement. All lungs were then dehydrated, cleared in toluene and embedded under vacuum in paraffin. Two 7-μm transversal sections were made and stained with hematoxylin-eosin and/or periodic acid-Schiff (PAS). Two pathologists blinded to the exposure protocol carried out the morphological and morphometrical evaluation.
# Morphometric assessment of emphysema included determination of the average inter-alveolar distance (mean linear intercept: Lm) and internal surface area estimated by the Lm method at postfixation lung volume. For the determination of the Lm for each pair of lungs, 40 histological fields were evaluated both vertically and horizontally. Examination of these numbers of fields meant that practically the entire lung area was evaluated. Internal surface area of the lung (ISA) was calculated by according to the formula: ISA=4VL/Lm.
# as §5
# [3] = air exposure, ROFLUMILAST 5 mg/kg p.o.
# [4] = chronic model of cigarette smoke induced emphysema in mice, dose not given
# [5] = cigarette smoke exposure, ROFLUMILAST 1 mg/kg p.o.
# [6] = cigarette smoke exposure, ROFLUMILAST 5 mg/kg p.o.
compound,measurement,setting,value
"O=C(Nc1c(Cl)cncc1Cl)c1ccc(OC(F)F)c(OCC2CC2)c1 [ROFLUMILAST, 3-cyclopropylmethoxy-4-difluoro-methoxy-N-(3,5-dichloropyrid-4-yl)benzamide]",Desmosine (lung content),[1]; [3],2.91 ± 0.08 μg/lung
same,"Effect on drop of the desmosine content in the lung, in words",[1]; [4],can prevent the drop of the desmosine content in the lung
same,Desmosine (lung content),[1]; [5],2.45 ± 0.11 μg/lung
same,Desmosine (lung content),[1]; [6],2.98 ± 0.10 μg/lung
same,"Lung desmosine content compared to air-exposed, in words","[1]; smoke-exposed, ROFLUMILAST 1 mg/kg",significantly lower lung desmosine content
same,"Lung desmosine content compared to air-exposure, in words","[1]; smoke-exposed, ROFLUMILAST 5 mg/kg",Unchanged lung desmosine content
same,Mortality,C57BI/6J mice,No animal died
same,Lm (mean linear intercept),[2]; [3],33.48 ± 0.36 μm
same,ISA (internal surface area of the lung),[2]; [3],1342.70 ± 23.39## cm^2
same,"Effect on increase of Lm, in words",[2]; [4],can prevent the increase of Lm
same,Lm (mean linear intercept),[2]; [5],40.79 ± 0.87 μm
same,ISA (internal surface area of the lung),[2]; [5],1079.78 ± 35.61** cm^2
same,Lm (mean linear intercept),[2]; [6],34.28 ± 0.31 μm
same,ISA (internal surface area of the lung),[2]; [6],1292.21 ± 29.63# cm^2
same,"Inhibition of emphysema formation (Lm and ISA), in words",[2]; ROFLUMILAST 1 mg/kg,unable to inhibit emphysema formation
same,"Inhibition of emphysema formation (Lm and ISA), in words",[2]; ROFLUMILAST 5 mg/kg,gross inhibition of emphysema formation
